Measured values published in patent publication US10087209B2, “Antiviral compounds, a process for their preparation, and their use for treating viral infections” (KU LEUVEN RESEARCH & DEVELOPMENT, priority 2015, dated 2018).
pEC50, pIC50: −log10 of the molar value. Where a name gives a salt, the structure may show the parent alone.

What was measured:
[1] = system: HBV wild-type strain ayw1 in HepG2 2.2.15 cells; assay: microbe, parasite or virus in culture; assay type: cell-based; details: Hepatitis B virus
Description: (§1) The primary anti-HBV assay is performed as previously described (Korba, B F and Milman, G. A cell culture assay for compound which inhibit hepatitis B virus replication. Antiviral Res. 1991, 15, 217-228; and Korba, B F and Gerin, J L. Use of a standardized cell culture assay to assess activities of nucleoside analogs again hepatitis B virus replication. Antiviral Res. 1992, 19, 55-70) with modifications to use real-time qPCR (TaqMan) to measure extracellular HBV DNA copy number associated with virions released from HepG2 2.2.15 cells. The HepG2 2.2.15 cell line is a stable human hepatoblastoma cell line that contains two copies of the HBV wild-type strain ayw1 genome and constitutively produces high levels of HBV. Antiviral compounds blocking any late step of viral replication such as transcription, translation, pregenome encapsidation, reverse transcription, particle assembly and release can be identified and characterized using this cell line.
Briefly, HepG2 2.2.15 cells are plated in 96-well microtiter plates at 1.5×10^4 cells/well in Dulbecco's Modified Eagle's Medium supplemented with 2% FBS, 380 μg/mL G418, 2.0 mM L-Glutamine, 100 units/mL Penicillin, 100 μg/mL Streptomycin, and 0.1 mM non-essential amino acids. Only the interior wells are utilized to reduce “edge effects” observed during cell culture; the exterior wells are filled with complete medium to help minimize sample evaporation. After 16-24 hours the confluent monolayer of HepG2 2.2.15 cells is washed and the medium is replaced with complete medium containing various concentrations of a test compound in triplicate Lamivudine (3TC) is used as the positive control, while media alone is added to cells as a negative control (virus control, VC). Three days later the culture medium is replaced with fresh medium containing the appropriately diluted test compounds. Six days following the initial administration of the test compound, the cell culture supernatant is collected, treated with pronase and then used in a real-time quantitative TaqMan qPCR assay. The PCR-amplified HBV DNA is detected in real-time by monitoring increases in fluorescent signal that result from the exonucleolytic degradation of a quenched fluorescent probe molecule that hybridizes to the amplified HBV DNA. For each PCR amplification, a standard curve is simultaneously generated using dilutions of purified HBV DNA. Antiviral activity is calculated from the reduction in HBV DNA levels (EC50 & EC90 values determined). A tetrazolium dye (MTS; 3-(4,5-dimethylthiazol-2-yl)-5-(3-carboxy-methoxyphenyl)-2-(4-sulfophenyl)-2H-tetrazolium; CellTiter®96 Reagent, Promega) uptake assay is then employed to measure cell viability, which is used to calculate toxicity (CC50). The Selectivity Index (SI50) is calculated as CC50/IC50. […]

[2] = MTS tetrazolium dye uptake cell viability assay (primary assay); assay type: cell-based, human; details: human, HepG2 2.2.15 cells
Description: (§2) Briefly, HepG2 2.2.15 cells are plated in 96-well microtiter plates at 1.5×10^4 cells/well in Dulbecco's Modified Eagle's Medium supplemented with 2% FBS, 380 μg/mL G418, 2.0 mM L-Glutamine, 100 units/mL Penicillin, 100 μg/mL Streptomycin, and 0.1 mM non-essential amino acids. Only the interior wells are utilized to reduce “edge effects” observed during cell culture; the exterior wells are filled with complete medium to help minimize sample evaporation. After 16-24 hours the confluent monolayer of HepG2 2.2.15 cells is washed and the medium is replaced with complete medium containing various concentrations of a test compound in triplicate Lamivudine (3TC) is used as the positive control, while media alone is added to cells as a negative control (virus control, VC). Three days later the culture medium is replaced with fresh medium containing the appropriately diluted test compounds. Six days following the initial administration of the test compound, the cell culture supernatant is collected, treated with pronase and then used in a real-time quantitative TaqMan qPCR assay. The PCR-amplified HBV DNA is detected in real-time by monitoring increases in fluorescent signal that result from the exonucleolytic degradation of a quenched fluorescent probe molecule that hybridizes to the amplified HBV DNA. For each PCR amplification, a standard curve is simultaneously generated using dilutions of purified HBV DNA. Antiviral activity is calculated from the reduction in HBV DNA levels (EC50 & EC90 values determined). A tetrazolium dye (MTS; 3-(4,5-dimethylthiazol-2-yl)-5-(3-carboxy-methoxyphenyl)-2-(4-sulfophenyl)-2H-tetrazolium; CellTiter®96 Reagent, Promega) uptake assay is then employed to measure cell viability, which is used to calculate toxicity (CC50). The Selectivity Index (SI50) is calculated as CC50/IC50.

[3] = system: HBV wild-type strain ayw1 in HepG2 2.2.15 cells; assay: Primary anti-HBV assay: extracellular HBV DNA copy number by real-time qPCR (TaqMan); assay type: cell-based, Hepatitis B virus
Description: as §1, §2

[4] = read-out: CC50 (cellular cytotoxicity); cited from earlier work
HIV-2 = details: cited from earlier work
HIV-1 = details: cited from earlier work
in vitro = assay type: cell-based; details: human; HepG2 2.2.15 cells, secondary assay
Description: Briefly, HepG2 2.2.15 cells are plated in 96-well microtiter plates at 1.5×10^4 cells/well in Dulbecco's Modified Eagle's Medium supplemented with 2% FBS, 380 μg/mL G418, 2.0 mM L-Glutamine, 100 units/mL Penicillin, 100 μg/mL Streptomycin, and 0.1 mM non-essential amino acids. Only the interior wells are utilized to reduce “edge effects” observed during cell culture; the exterior wells are filled with complete medium to help minimize sample evaporation. After 16-24 hours the confluent monolayer of HepG2 2.2.15 cells is washed and the medium is replaced with complete medium containing various concentrations of a test compound in triplicate Lamivudine (3TC) is used as the positive control, while media alone is added to cells as a negative control (virus control, VC). […] Six days following the initial administration of the test compound, the cell culture supernatant is collected, treated with pronase and then used in a real-time quantitative TaqMan qPCR assay. The PCR-amplified HBV DNA is detected in real-time by monitoring increases in fluorescent signal that result from the exonucleolytic degradation of a quenched fluorescent probe molecule that hybridizes to the amplified HBV DNA. […] Antiviral activity is calculated from the reduction in HBV DNA levels (EC50 & EC90 values determined). […] The Selectivity Index (SI50) is calculated as CC50/IC50. […]

HepG2 2.2.15 cells = assay: MTS tetrazolium dye uptake cell viability assay (primary assay); assay type: cell-based, human
Description: as §2

[5] = Hepatitis B virus, 144 h, reduction in extracellular HBV DNA, HepG2 2.2.15 cells, six days, read-out: EC50
[6] = Hepatitis B virus, 144 h, reduction in extracellular HBV DNA, HepG2 2.2.15 cells, six days, read-out: EC90
[7] = Hepatitis B virus, HepG2 2.2.15, 144 h

| SMILES | CC50 at 6 days [2] [µM] | pEC50 [3, 5] | EC90 [3, 6] [µM] | pEC50 [3, 7] | EC90 [3, 7] [µM] | further results |
| --- | --- | --- | --- | --- | --- | --- |
| Nc1ccn([C@@H]2CS[C@H](CO)O2)c(=O)n1 [3TC (Lamivudine), Lamivudine, reference compound] | > 2 | 7.52 | > 2 |  |  | pEC50 ([1]; reduction in intracellular HBV DNA, HepG2 2.2.15 cells, read-out: EC50): > 8.00; EC90 ([1]; reduction in intracellular HBV DNA, HepG2 2.2.15 cells, read-out: EC90): > 2 µM |
| Nc1ncnc2c1ncn2[C@H]1C[C@@H](OCP(=O)(O)O)CO1 [PMDTA, 1′α-(Adenin-9-yl)-2′-deoxy-3′-O-phosphonomethyl-L-threose triethylammonium salt, reference compound] | > 100 | 6.30 | > 100 |  |  | CC50 [4]: > 316 µM; pEC50 (HIV-2; read-out: EC50 value against HIV-2): 5.60; pEC50 (HIV-1; read-out: EC50 value against HIV-1): 5.60 |
| Cc1cn([C@H]2C[C@@H](OCP(=O)(O)O)CO2)c(=O)[nH]c1=O [PMDTT, 1′α-(Thymin-1-yl)-2′-deoxy-3′-O-phosphonomethyl-L-threose triethylammonium salt, reference compound] | > 100 | 4.40 | > 100 |  |  | CC50 [4]: > 343 µM; pIC50 (HIV-2; read-out: IC50 value against HIV-2): 5.18; pIC50 (HIV-1; read-out: IC50 value against HIV-1): 5.18 |
| CC(C)OC(=O)[C@H](C)NP(=O)(CO[C@H]1CO[C@@H](n2cnc3c(N)ncnc32)C1)Oc1ccccc1 (some centres unmarked) [compound 17] | > 10 |  |  | 7.52 | > 10 |  |
| CC(C)CCOC(=O)C[C@H](NP(=O)(CO[C@H]1CO[C@@H](n2cnc3c(N)ncnc32)C1)Oc1ccccc1)C(=O)OCCC(C)C (some centres unmarked) [compound 18] | 55.5 |  |  | 8.00 | 0.98 | pEC50 ([1]; HepG2 2.2.15): > 8.00; EC90 ([1]; HepG2 2.2.15): 0.36 µM; CC50 at 6 days (in vitro): 35.2 µM |
| Cc1cn([C@H]2C[C@@H](OCP(=O)(N[C@@H](C)C(=O)OC(C)C)Oc3ccccc3)CO2)c(=O)[nH]c1=O (some centres unmarked) [compound 20] | > 100 |  |  | 6.59 | > 10 |  |
| Cc1cn([C@H]2C[C@@H](OCP(=O)(N[C@@H](CC(=O)OCCC(C)C)C(=O)OCCC(C)C)Oc3ccccc3)CO2)c(=O)[nH]c1=O (some centres unmarked) [compound 21] | 59.6 |  |  | 6.60 | > 10 |  |
| CC(C)OC(=O)[C@H](C)NP(=O)(CO[C@H]1CO[C@@H](n2ccc(N)nc2=O)C1)Oc1ccccc1 (stereo partly drawn) [compound 32, 1′α-(Cytosin-1-yl)-2′-deoxy-3′-O—{[N-(isopropyl-L-alaninate)](phenoxy)-methylphosphonoamidate}-L-threose] | > 100 |  |  | 4.32 | > 100 |  |
| CCCOC(=O)[C@H](Cc1ccccc1)NP(=O)(CO[C@H]1CO[C@@H](n2cnc3c(=O)[nH]c(N)nc32)C1)N[C@@H](Cc1ccccc1)C(=O)OCCC [compound 39] | > 100 | < 4.00 | > 100 |  |  |  |
| CC(C)OC(=O)[C@H](C)NP(=O)(CO[C@H]1CO[C@@H](n2cnc3c(=O)[nH]c(N)nc32)C1)Oc1ccccc1 (some centres unmarked) [compound 40] | > 100 |  |  | < 4.00 | > 100 |  |
| CC(C)OC(=O)[C@H](C)NP(=O)(COC1COC(n2cnc3c(=O)[nH]c(N)nc32)C1)Oc1ccccc1 (stereo partly drawn) [compound 41, 1′α-(Guanin-9-yl)-2′-deoxy-3′-O—{[N-(isopropyl-L-alaninate)](phenoxy)-methylphosphonoamidate}-L-threose] |  |  |  |  |  | CC50 (HepG2 2.2.15 cells): > 100 µM; pEC50 ([3]; reduction in extracellular HBV DNA, HepG2 2.2.15 cells, six days, read-out: EC50): < 4.00; EC90 ([3]; reduction in extracellular HBV DNA, HepG2 2.2.15 cells, six days, read-out: EC90): > 100 µM |
